The subject of one test is Yoshida sarcoma cells. Put plainly: suppression of Yoshida sarcoma cells in culture. The format is cell-based. Particulars: Rattus norvegicus, 72 h, 3 days, read-out: suppression rate to control. Here is the method:
A concentration of each compound or complex in the culture solution was adjusted to 1 mg/ml, 0.5 mg/ml, 0.25 mg/ml or 0.125 mg/ml. After the sarcoma cells were cultivated for 3 days, the number of the cells was measured.

The next test concerns lactic acid bacteria. Put plainly: multiplication of lactic acid bacteria in MRS medium. Particulars: 0.25 mg/10 ml MRS medium, 48 hours; read-out: Multiplication rates to control. It counts as cell-based. The protocol:
Pre-cultivated lactic acid bacteria were seeded into each MRS medium in a predetermined amount. After 48 hours, it was diluted to a predetermined magnification and inoculated on an MRS agar medium to measure the number of the bacteria.

The subject of the next test is Yoshida sarcomas. Put plainly: Yoshida sarcoma transplanted into rat, oral administration. It counts as in vivo, Donryu-rat. Particulars: 8 mg/kg/day, 2 weeks. Here is the method:
Yoshida sarcomas were transplanted into a Donryu-rat of an age of 5 weeks. […] After the administration, sizes of the sarcomas were measured.

Another test relates to macrophages. Put plainly: migration ability of macrophages (glass capillary method) after oral administration. It counts as in vivo, SD rat. Conditions: oral 4 mg/kg/day, 4 weeks; migration area after 24 hours; ratio to control group. Here is the method: After the administration, liquid paraffin was administered into peritoneal cavity of each rat. Three days later, peritoneal exudate cells were taken. Migration ability of macrophages produced from the peritoneal exudate cells was tested by glass capillary method. After 24 hours, a migration area of the macrophage was measured and a ratio of the measured migration area to that of control group was calculated.

The test system of test [1] is lactic acid bacteria in the bowel. Put plainly: number of lactic acid bacteria in the bowel of rats after oral administration. It counts as in vivo, rat. Conditions: oral 4 mg/kg/day, 4 weeks; upper limit of the measurement 20. An excerpt:
After the administration, content of the bowel of each rat was taken, diluted to a predetermined magnification and inoculated on an MRS agar medium to measure the number of lactic acid bacteria in the bowel.

Each structure is given as a SMILES string.

On to `CC1OC(=O)C(C)OC1=O` (stereo not drawn) [formula (4), lactide], for which the inhibition at 125 µg/mL in the test on Yoshida sarcoma cells (0.125 mg/ml) is -18.2%. Moreover, in the test on Yoshida sarcoma cells (0.25 mg/ml), the inhibition at 250 µg/mL worked out at 0%. In addition, the inhibition at 500 µg/mL with Yoshida sarcoma cells (0.5 mg/ml) is 0%. Further, the inhibition at 1000 µg/mL in the test with Yoshida sarcoma cells (1 mg/ml) is 40.9%. The activity at 25 µg/mL in the test on lactic acid bacteria is 116%. Also, the Size of sarcoma in the test on Yoshida sarcomas (average values) is listed as 3216.6 mm^3. This molecule had a Suppression rate in the test with Yoshida sarcomas (versus control) of 57.9%. The “Ratio of the migration area” value in the test with macrophages is reported as 1.13. Moreover, the “Ratio to control (number of lactic acid bacteria in the bowel)” value in test [1] was found to be 3.8.
